# Measured values as given in patent publication US9556202B2, “Sulfonamide derivatives and methods of use thereof for improving the pharmacokinetics of a drug” (MERCK SHARP & DOHME CORP., priority 2012, dated 2017).
# Molecular target: T1, CYP3A4 (Homo sapiens, UniProt P08684)
# T1 construct: 0.01 mg/mL protein human liver microsomes (BD Gentest); tissue BD Gentest; host or cells: human liver microsomes
# Assay: IC50 vs CYP3A by inhibition of lopinavir metabolism in human liver microsomes
# Assay type: biochemical
# Settings: human liver microsomes 0.01 mg/mL, 1.5 μM lopinavir, 8 min 37° C.; test conc. e.g. 0.098-100 nM; unit inferred; read-out: 3A4(LPV)
# Procedure: Determination of IC50 Vs CYP3A by Measurement of Inhibition of Lopinavir Metabolism
# This assay was performed in a standard 96-well plate design. IC50 values were calculated from the percent inhibition observed for each test compound at 6 concentrations (for example, 0.098, 0.391, 1.56, 6.25, 25 and 100 nM). The incubation substrate mix contains 1.5 μM lopinavir, 0.01 mg/mL protein human liver microsomes (BD Gentest), 1 mM NAPDH, 3.3 mM MgCl2 and 100 mM potassium phosphate buffer (pH 7.4). The production of the sum of three hydroxylated metabolites (M2: 6-hydroxy lopinavir, M3: 4-hydroxy lopinavir, M4: 4-hydroxy lopinavir (epimer of M3), Kumar et al., 1999) was determined after incubation for 8 min at 37° C. Quantitation of the metabolite peak area ratio against an internal standard (tolbutamide) was determined by LC/MS/MS analysis following acetonitrile treatment of the incubations.
# Samples were analyzed in the MRM mode with a SCIEX API-4000 mass spectrometer (Applied Biosystems, Foster City, Calif.), with a Shimadzu LC-20 AD pump (Shimadzu corporation, Kyoto, JP) and a CTC PAL autosampler (Agilent Technologies, Switzerland). A Phenomenex, Luna, 5 μm, 100 A, 2.00×30 mm HPLC column was used for the separation. The mobile phases were: (A) 0.1% formic acid in water and (B) 0.1% formic acid in acetonitrile. The binary gradient was as follows.
# The peak area ratio of the analyte to the internal standard was used to quantify the metabolite. The values of peak area ratios in the presence of test compound were compared to those of maximum or minimum controls and were expressed as % inhibition by interpolating between the maximum and minimum peak area ratios. Incubations with no inhibitor were defined as the maxima and with 5 μM ketoconazole were defined as the minima.
# The following equation was used to calculate the % inhibition: [1−[(X−Low control)/(High control−Low control)]]*100
# For the IC50 calculation, SigmaPlot was used to plot the mean % inhibition versus the test compound concentrations and for non-linear regression analysis of the data. Depending on the range of data points defining the inhibition curve, the data may have been fit to the 4-parameter logistic equation.
# T1 sequence (P08684 2-503): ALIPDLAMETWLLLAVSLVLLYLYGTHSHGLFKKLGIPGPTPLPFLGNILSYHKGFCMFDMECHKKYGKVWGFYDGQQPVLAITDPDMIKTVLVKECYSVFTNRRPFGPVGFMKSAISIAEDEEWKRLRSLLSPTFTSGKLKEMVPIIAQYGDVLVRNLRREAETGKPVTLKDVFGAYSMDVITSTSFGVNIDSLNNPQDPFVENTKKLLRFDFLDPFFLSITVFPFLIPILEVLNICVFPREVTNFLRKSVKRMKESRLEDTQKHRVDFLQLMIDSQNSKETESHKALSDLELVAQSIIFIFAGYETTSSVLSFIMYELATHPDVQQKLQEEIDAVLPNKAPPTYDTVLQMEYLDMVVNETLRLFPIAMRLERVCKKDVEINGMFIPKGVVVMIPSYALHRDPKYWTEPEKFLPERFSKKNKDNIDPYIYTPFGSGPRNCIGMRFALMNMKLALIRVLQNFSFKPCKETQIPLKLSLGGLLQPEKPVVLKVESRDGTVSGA
row,SMILES,IC50 [nM]
1,C[C@H](c1ccc(F)cc1)n1cncc1CN1CCN(S(=O)(=O)c2cnc(N3CCN(C4CCN(C)CC4)CC3)s2)CC1 [Compound 9],2.8
2,C[C@H](c1ccc(F)cc1)n1cncc1CN1CCN(S(=O)(=O)c2cnc(N3CCN(C)CC3)s2)CC1 [Compound 2],1
3,C[C@H](c1ccc(F)cc1)n1cncc1CN1CCN(S(=O)(=O)c2cnc(N3CCN4C[C@H](O)CC[C@H]4C3)s2)CC1 [Compound 19],1.7
4,C[C@H](c1ccc(F)cc1)n1cncc1CN1CCN(S(=O)(=O)c2cnc(N3CC[C@@H](N)[C@H](F)C3)s2)CC1 [Compound 12],1
5,C[C@H](c1ccc(F)cc1)n1cncc1CN1CCN(S(=O)(=O)c2cnc(N3CC[C@@H](N4CCOCC4)[C@H](F)C3)s2)CC1 [Compound 20],4.1
6,C[C@H](c1ccc(F)cc1)n1cncc1CN1CCN(S(=O)(=O)c2cnc(N3CCN4C[C@H](O)C[C@H]4C3=O)s2)CC1 [Compound 18],1.1
7,C[C@H](c1ccc(F)cc1)n1cncc1CN1CCN(S(=O)(=O)c2cnc(N3CC(=O)N4C[C@H](O)C[C@H]4C3)s2)CC1 [Compound 16],5.2
8,C[C@H](c1ccc(F)cc1)n1cncc1CN1CCN(S(=O)(=O)c2cnc(N3CCNCC3)s2)CC1 [Compound 1],1.4
9,CC1CN(c2ncc(S(=O)(=O)N3CCN(Cc4cncn4[C@H](C)c4ccc(F)cc4)CC3)s2)C[C@@H]2C[C@@H](O)CN12 (stereo partly shown) [Compound 23],1.6
10,C[C@H](c1ccc(F)cc1)n1cncc1CN1CCN(S(=O)(=O)c2cnc(N3CCN4C[C@H](O)C[C@H]4C3)s2)CC1 [Compound 5],3.8
11,C[C@H](c1ccc(F)cc1)n1cncc1CN1CCN(S(=O)(=O)c2cnc(N3CCC(S(C)(=O)=O)C3)s2)CC1 (stereo partly shown) [Compound 7],1.7
12,C[C@H](c1ccc(F)cc1)n1cncc1CN1CCN(S(=O)(=O)c2cnc(N3CCN4C[C@H](O)C[C@@H]4C3)s2)CC1 [Compound 6],1.4
13,C[C@H](c1ccc(F)cc1)n1cncc1CN1CCN(S(=O)(=O)c2cnc(N3CC[C@@H]4NCCO[C@H]4C3)s2)CC1 [Compound 15],1.2
14,C[C@H](c1ccc(F)cc1)n1cncc1CN1CCN(S(=O)(=O)c2cnc(N3CCC(S(C)(=O)=O)C3)s2)CC1 (stereo partly shown) [Compound 8],1.8
15,C[C@H](c1ccc(F)cc1)n1cncc1CN1CCN(S(=O)(=O)c2cnc(N3CC[C@@H]4OCCN[C@H]4C3)s2)CC1 [Compound 13],1.4
16,C[C@H](c1ccc(F)cc1)n1cncc1CN1CCN(S(=O)(=O)c2cnc(N3C[C@@H]4C[C@@H](O)CN4C[C@@H]3C)s2)CC1 [Compound 21],1.9
17,C[C@H](c1ccc(C#N)cc1)n1cncc1CN1CCN(S(=O)(=O)c2cnc(Nc3ccc(C(F)(F)F)cn3)s2)CC1 [Compound 4],< 0.1
18,C[C@H](c1ccc(F)cc1)n1cncc1CN1CCN(S(=O)(=O)c2cnc(N3CCC4(CC3)CNC(=O)N4)s2)CC1 [Compound 3],2.7
19,C[C@H](c1ccc(F)cc1)n1cncc1CN1CCN(S(=O)(=O)c2cnc(NCC(F)CN)s2)CC1 (stereo partly shown) [Compound 17],1.7
20,C[C@H](c1ccc(F)cc1)n1cncc1CN1CCN(S(=O)(=O)c2cnc(N3CCN4C[C@H](O)CC4(C)C3)s2)CC1 (stereo partly shown) [Compound 24],1.9

# The next lines start with the values.
row,IC50 [nM],SMILES
1,2.3,CN1CCN(c2ncc(S(=O)(=O)N3CCN(Cc4cncn4CCOc4ccc(F)cn4)CC3)s2)CC1 [Compound 33]
2,3.6,C[C@H](c1ccc(F)cc1)n1cncc1CN1CCN(S(=O)(=O)c2cnc(N3CCNCC3)cn2)CC1 [Compound 30]
3,1.2,CN1CCN(c2ncc(S(=O)(=O)N3CCN(Cc4cncn4CCOc4ccc(Cl)cc4)CC3)s2)CC1 [Compound 32]
4,2,"C[C@H](c1ccc(F)cc1)n1cncc1C1CC12CCN(S(=O)(=O)c1cnc(N3CCN(C)CC3)s1)CC2 (single isomer, unassigned) [Compound 43b]"
5,1.5,C[C@H](c1ccc(F)cc1)n1cncc1CN1CCN(S(=O)(=O)c2cnc(N3CCN4C(=O)OC[C@H]4C3)s2)CC1 [Compound 26]
6,2.1,C[C@H](c1ccc(F)cc1)n1cncc1C1CN(C)CC2CN(S(=O)(=O)c3cnc(Nc4ccccn4)s3)CCN21 (stereo partly shown) [Compound 41]
7,8,C[C@H](c1ccc(F)cc1)n1cncc1C1C(=O)OCC2CN(S(=O)(=O)c3cnc(Nc4ccc(C(F)(F)F)cn4)s3)CCN21 (stereo partly shown) [Compound 39]
8,4.4,Cc1ccc(C2(n3cncc3CN3CCN(S(=O)(=O)c4cnc(N5CCN(C)CC5)s4)CC3)CC2)nc1 [Compound 31]
9,6,"C[C@H](c1ccc(F)cc1)n1cncc1C1CC12CCN(S(=O)(=O)c1cnc(N3CCN(C)CC3)s1)CC2 (single isomer, unassigned) [Compound 43a]"
10,9.4,C[C@H](c1ccc(F)cc1)n1cncc1CC1(C#N)CCN(S(=O)(=O)c2cnc(N3CCN(C)CC3)s2)CC1 [Compound 48]
11,4.1,CC(c1cncn1[C@H](C)c1ccc(F)cc1)N1CCN(S(=O)(=O)c2cnc(N3CCN4C[C@H](O)C[C@H]4C3)s2)CC1 (stereo partly shown) [Compound 37]
12,32,C[C@H](c1ccc(F)cc1)n1cnnc1CN1CCN(S(=O)(=O)c2cnc(N3CCN4C[C@H](O)C[C@H]4C3)s2)CC1 [Compound 42]
13,4.4,C[C@H](c1ccc(F)cc1)n1cncc1CN1CCN(S(=O)(=O)c2ccc(N3CCNCC3)cn2)CC1 [Compound 28]
14,0.8,C[C@H](c1ccc(F)cc1)n1cncc1C1COCC2CN(S(=O)(=O)c3cnc(Nc4ccccn4)s3)CCN21 (stereo partly shown) [Compound 40]
15,13,C[C@H](c1ccc(F)cc1)n1cncc1CC1(CO)CCN(S(=O)(=O)c2cnc(N3CCN(C)CC3)s2)CC1 [Compound 47]
16,1.9,C[C@H](c1ccc(F)cc1)n1cncc1CN1CCN(S(=O)(=O)c2cnc(N3CCC(N)(CO)CC3)s2)CC1 [Compound 25]
17,1.1,C[C@H](c1ccc(F)cc1)n1cncc1CC1CCN(S(=O)(=O)c2cnc(N3CCN(C)CC3)s2)CC1 [Compound 44]
18,2.9,C[C@H](c1ccc(F)cc1)n1cncc1CN1CCN(S(=O)(=O)c2cncc(N3CCNCC3)c2)CC1 [Compound 29]
19,2.6,C[C@H](c1ccc(F)cc1)n1cncc1CN1CCN(S(=O)(=O)c2cnc(N3CCN4CCC(O)[C@H]4C3)s2)CC1 (stereo partly shown) [Compound 27]

# Molecular target: T2, human CYP11B2 (Homo sapiens, UniProt P19099)
# T2 construct: expressed in transfected cells
# T2 sequence (P19099 25-503): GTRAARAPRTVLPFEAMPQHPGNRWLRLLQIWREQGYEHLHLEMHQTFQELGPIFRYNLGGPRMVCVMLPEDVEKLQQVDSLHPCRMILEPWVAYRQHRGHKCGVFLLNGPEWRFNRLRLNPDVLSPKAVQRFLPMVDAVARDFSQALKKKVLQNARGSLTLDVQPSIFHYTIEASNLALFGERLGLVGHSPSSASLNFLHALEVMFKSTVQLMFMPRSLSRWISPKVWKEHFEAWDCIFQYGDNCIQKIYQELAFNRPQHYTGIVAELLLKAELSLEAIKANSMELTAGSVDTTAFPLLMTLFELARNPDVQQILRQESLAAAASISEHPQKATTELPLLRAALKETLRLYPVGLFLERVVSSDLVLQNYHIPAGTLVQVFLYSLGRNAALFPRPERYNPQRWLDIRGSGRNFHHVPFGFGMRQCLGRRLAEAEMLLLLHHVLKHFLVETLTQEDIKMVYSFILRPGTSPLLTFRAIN
# Assay: IC50 vs CYP11B2 by aldosterone synthesis in V79 cells (HTRF)
# Assay type: cell-based
# Settings: V79 cells expressing human CYP11B2, 750 nM DOC, test conc. 0.5-10000 nM, unit inferred
# Procedure: Determination of IC50 Vs CYP11B1/CYP11B2 by Measurement of Cortisol/Aldosterone Synthesis
# This assay was performed in a standard 384-well plate design using cultured V79 cells stably expressing human CYP11B1 or human CYP11B2. Test compounds at 10 concentrations (for example, 10000, 3333.3, 1111.1, 370.4, 123.5, 41.2, 13.7, 4.6, 1.5 and 0.5 nM) were added in 384-well plate after the cell-seeding procedure. The incubation substrate contains 1500 nM RSS for CYP11B1 assay/750 nM DOC for CYP11B2 assay. The Cortisol/Aldosterone production of cell culture supernatant was determined by Cortisol/Aldosterone HTRF kit after for about 15 hours incubation at RT (protect from light). IC50 values were calculated from the percent inhibition observed for each test compound at 10 concentrations.
# The assay plate was read using Envision (Perkin Elmer, Waltham, Mass.) at 665 nm and 590 nm (using Filter Barcode of 217#, 205#; Mirror Barcode of 446#).
# Data are analyzed using Assay Data Analyzer. All ratio data (665 nm/590 nm) are back calculated according to the standard curve, resulting in Cortisol/Aldosterone concentrations. IC50 values are reported as the Inflection Point (IP) of a four parameter fit of the titration data.
# The following equation was used to calculate the % inhibition: % Activity=100×{1−(Sample_back calculated Cortisol/Aldosterone concentration−LC_back calculated Cortisol/Aldosterone concentration)/(HC_back calculated Cortisol/Aldosterone concentration−LC_back calculated Cortisol/Aldosterone concentration)} Curve Fitting: Four Parameter Logistic: […]
row,IC50 [µM],SMILES
1,16.3,C[C@H](c1ccc(F)cc1)n1cncc1CN1CCN(S(=O)(=O)c2cnc(N3CCC(S(C)(=O)=O)C3)s2)CC1 (stereo partly shown) [Compound 7]
